Measurements: patent publication USRE49022E1, “Insecticidal compounds” (SYNGENTA PARTICIPATIONS AG, priority 2013, dated 2022)

Key:
Format in all cases: in vivo
[1] = system: Thrips tabaci (Onion Thrips); assay: Thrips tabaci, sunflower leaf disc spray test; details: foliar, 168 h, sprayed sunflower leaf discs, mortality after 7 days
[2] = system: Spodoptera littoralis (Egyptian Cotton Leaf Worm); assay: Spodoptera littoralis, agar / lettuce root uptake test; details: 144 h, mixed with agar, uptake by lettuce roots, mortality 6 days after infestation
Description: Test compounds were applied by pipette into 24 well plates and mixed with agar. Application rate: 12.5 ppm. Lettuce seeds were placed on the agar and the multi well plate is closed by another plate which contains also agar. After 7 days the roots have absorbed the compound and the lettuce has grown into the lid plate. The lettuce leafs were now cut off into the lid plate. Spodoptera eggs were pipetted through a plastic stencil on a humid gel blotting paper and the plate closed with it. The samples are checked for mortality 6 days after infestation.

[3] = system: Myzus persicae (Green Peach Aphid); assay: Myzus persicae, sucrose solution / Parafilm test; details: 120 h, mixed with sucrose solution under Parafilm, mortality 5 days after infestation
Description: Test compounds were applied by pipette into 24 well plates and mixed with Sucrose solution. Application rate: 12.5 ppm. The plates were closed with a stretched Parafilm. A plastic stencil with 24 holes is placed onto the plate and infested pea seedlings were placed directly on the Parafilm. The infested plate is closed with a gel blotting paper and another plastic stencil and then turned upside down. 5 days after infestation the samples were checked on mortality.

[4] = system: Spodoptera littoralis (Egyptian Cotton Leafworm); assay: Spodoptera littoralis, cotton leaf disc spray test; details: foliar, 72 h, sprayed cotton leaf discs, L1 larvae, 3 days after treatment
Description: Cotton leaf discs were placed on agar in a 24-well microtiter plate and sprayed with test solutions at an application rate of 200 ppm. After drying, the leaf discs were infested with 5 L1 larvae. The samples were checked for mortality 3 days after treatment (DAT).

[5] = system: Tetranychus urticae (Two-Spotted Spider Mite); assay: Tetranychus urticae, bean leaf disc spray test; details: foliar, 192 h, sprayed bean leaf discs, mite populations of mixed ages, 8 days
Description: Bean leaf discs on agar in 24-well microtiter plates were sprayed with test solutions at an application rate of 200 ppm. After drying, the leaf discs are infested with mite populations of mixed ages. 8 days later, discs were checked for mortality.

[6] = system: Plutella xylostella (Diamond Back Moth); assay: Plutella xylostella, artificial diet MTP test; details: 144 h, 200 ppm (concentration in well 18 ppm), L2 larvae, 6 days
Protocol: 24-well microtiter plate (MTP) with artificial diet was treated with test solutions at an application rate of 200 ppm (concentration in well 18 ppm) by pipetting. After drying, the MTP's were infested with L2 larvae (7-12 per well). After an incubation period of 6 days, samples were checked for larval mortality and growth regulation. The following compound gave at least 80% mortality of Plutella xylostella: 1, 2, 3, 4, 5, 6, 7, 8, 9, 10, 11, 12, 13, 14, 15, 16, 17, 18, 19, 20, 21, 22, 23, 24, 25, 26, 27, 28, 29, 30, 31, 32, 33, 34, 35, 36, 37, 38, 39, 40, 41, 42, 43, 44, 45, 46, 47, 48, 49, 50.

[7] = system: Diabrotica balteata (Corn Root Worm); assay: Diabrotica balteata, artificial diet MTP test; details: 120 h, 200 ppm (concentration in well 18 ppm), L2 larvae, larval mortality after 5 days
Protocol: A 24-well microtiter plate (MTP) with artificial diet was treated with test solutions at an application rate of 200 ppm (concentration in well 18 ppm) by pipetting. After drying, the MTP's were infested with L2 larvae (6-10 per well). After an incubation period of 5 days, samples were checked for larval mortality The following compound gave at least 80% control of Diabrotica balteata: 1, 2, 3, 4, 5, 6, 7, 8, 9, 10, 11, 12, 13, 14, 15, 16, 17, 18, 19, 20, 21, 22, 23, 24, 25, 26, 27, 28, 29, 30, 31, 32, 33, 34, 35, 36, 37, 38, 39, 40, 41, 42, 43, 44, 45, 46, 47, 48, 49, 50, 51.

[8] = system: Myzus persicae (Green Peach Aphid); assay: Myzus persicae, sunflower leaf disc spray test; details: foliar, 144 h, sprayed sunflower leaf discs, aphid population of mixed ages, mortality after 6 DAT
Protocol: Sunflower leaf discs were placed on agar in a 24-well microtiter plate and sprayed with test solutions at an application rate of 200 ppm. After drying, the leaf discs were infested with an aphid population of mixed ages. After an incubation period of 6 DAT, samples were checked for mortality.

CCN(C(=O)c1ccc(C#N)cc1)c1cccc(C(=O)Nc2c(Br)cc(C(F)(C(F)(F)F)C(F)(F)Br)cc2OC(F)F)c1F (centres unmarked) [Compound 8]
≥ 80%: pest or weed control at 200 ppm [1] | pest or weed control at 12.5 ppm [2] | pest or weed control at 12.5 ppm [3] | mortality at 200 ppm [4] | mortality at 200 ppm [5] | mortality at 200 ppm [6] | pest or weed control at 200 ppm [7] | pest or weed control at 200 ppm [8]

CCN(C(=O)c1ccncc1)c1cccc(C(=O)Nc2c(Br)cc(C(F)(C(F)(F)F)C(F)(F)Cl)cc2OC(F)F)c1OC (centres unmarked) [Compound 36, N-[3-[[2-bromo-4-[1-[chloro(difluoro)methyl]-1,2,2,2-tetrafluoro-ethyl]-6-(difluoromethoxy)phenyl]carbamoyl]-2-methoxy-phenyl]-N-ethyl-pyridine-4-carboxamide]
≥ 80%: pest or weed control at 200 ppm [1] | pest or weed control at 12.5 ppm [2] | pest or weed control at 12.5 ppm [3] | mortality at 200 ppm [4] | mortality at 200 ppm [5] | mortality at 200 ppm [6] | pest or weed control at 200 ppm [7] | pest or weed control at 200 ppm [8]

CCN(C(=O)c1cc[n+]([O-])cc1)c1cccc(C(=O)Nc2c(Br)cc(C(F)(C(F)(F)F)C(F)(F)Cl)cc2OC(F)F)c1F (centres unmarked) [Compound 43]
≥ 80%: pest or weed control at 200 ppm [1] | pest or weed control at 12.5 ppm [2] | pest or weed control at 12.5 ppm [3] | mortality at 200 ppm [4] | mortality at 200 ppm [5] | mortality at 200 ppm [6] | pest or weed control at 200 ppm [7] | pest or weed control at 200 ppm [8]

CCN(C(=O)c1ccc(C#N)cc1)c1cccc(C(=O)Nc2c(Br)cc(C(F)(C(F)(F)F)C(F)(F)Br)cc2OC(F)F)c1OC (centres unmarked) [Compound 10]
≥ 80%: pest or weed control at 200 ppm [1] | pest or weed control at 12.5 ppm [2] | pest or weed control at 12.5 ppm [3] | mortality at 200 ppm [4] | mortality at 200 ppm [5] | mortality at 200 ppm [6] | pest or weed control at 200 ppm [7] | pest or weed control at 200 ppm [8]

COc1c(NC(=O)c2ccc(C#N)cc2)cccc1C(=O)Nc1c(Br)cc(C(F)(C(F)(F)F)C(F)(F)Cl)cc1OC(F)F (centres unmarked) [Compound 16]
≥ 80%: pest or weed control at 200 ppm [1] | pest or weed control at 12.5 ppm [2] | pest or weed control at 12.5 ppm [3] | mortality at 200 ppm [4] | mortality at 200 ppm [5] | mortality at 200 ppm [6] | pest or weed control at 200 ppm [7] | pest or weed control at 200 ppm [8]

O=C(Nc1cccc(C(=O)Nc2c(Br)cc(C(F)(C(F)(F)F)C(F)(F)Cl)cc2OC(F)F)c1F)c1ccncc1 (centres unmarked) [Compound 11]
≥ 80%: pest or weed control at 200 ppm [1] | pest or weed control at 12.5 ppm [2] | pest or weed control at 12.5 ppm [3] | mortality at 200 ppm [4] | mortality at 200 ppm [5] | mortality at 200 ppm [6] | pest or weed control at 200 ppm [7] | pest or weed control at 200 ppm [8]

O=C(Nc1cccc(C(=O)Nc2c(Br)cc(C(F)(C(F)(F)F)C(F)(F)Br)cc2OC(F)F)c1F)c1ccncc1 (centres unmarked) [Compound 4]
≥ 80%: pest or weed control at 200 ppm [1] | pest or weed control at 12.5 ppm [2] | pest or weed control at 12.5 ppm [3] | mortality at 200 ppm [4] | mortality at 200 ppm [5] | mortality at 200 ppm [6] | pest or weed control at 200 ppm [7] | pest or weed control at 200 ppm [8]

CCN(C(=O)c1ccc[n+]([O-])c1)c1cccc(C(=O)Nc2c(Br)cc(C(F)(C(F)(F)F)C(F)(F)Cl)cc2OC(F)F)c1OC (centres unmarked) [Compound 48]
≥ 80%: pest or weed control at 200 ppm [1] | pest or weed control at 12.5 ppm [2] | pest or weed control at 12.5 ppm [3] | mortality at 200 ppm [4] | mortality at 200 ppm [5] | mortality at 200 ppm [6] | pest or weed control at 200 ppm [7] | pest or weed control at 200 ppm [8]

O=C(Nc1cccc(C(=O)Nc2c(Br)cc(C(F)(C(F)(F)F)C(F)(F)Cl)cc2OC(F)F)c1F)c1cccnc1 (centres unmarked) [Compound 12]
≥ 80%: pest or weed control at 200 ppm [1] | pest or weed control at 12.5 ppm [2] | pest or weed control at 12.5 ppm [3] | mortality at 200 ppm [4] | mortality at 200 ppm [5] | mortality at 200 ppm [6] | pest or weed control at 200 ppm [7] | pest or weed control at 200 ppm [8]

N#Cc1ccc(C(=O)Nc2cccc(C(=O)Nc3c(Br)cc(C(F)(C(F)(F)F)C(F)(F)Br)cc3OC(F)F)c2F)cc1 (centres unmarked) [Compound 5]
≥ 80%: pest or weed control at 200 ppm [1] | pest or weed control at 12.5 ppm [2] | pest or weed control at 12.5 ppm [3] | mortality at 200 ppm [4] | mortality at 200 ppm [5] | mortality at 200 ppm [6] | pest or weed control at 200 ppm [7] | pest or weed control at 200 ppm [8]

CCN(C(=O)c1ccncc1)c1cccc(C(=O)Nc2c(Br)cc(C(F)(C(F)(F)F)C(F)(F)Br)cc2OC(F)F)c1F (centres unmarked) [Compound 7]
≥ 80%: pest or weed control at 200 ppm [1] | pest or weed control at 12.5 ppm [2] | pest or weed control at 12.5 ppm [3] | mortality at 200 ppm [4] | mortality at 200 ppm [5] | mortality at 200 ppm [6] | pest or weed control at 200 ppm [7] | pest or weed control at 200 ppm [8]

O=C(Nc1cccc(C(=O)Nc2c(Br)cc(C(F)(C(F)(F)F)C(F)(F)Cl)cc2OC(F)F)c1F)c1cc[n+]([O-])cc1 (centres unmarked) [Compound 23]
≥ 80%: pest or weed control at 200 ppm [1] | pest or weed control at 12.5 ppm [2] | pest or weed control at 12.5 ppm [3] | mortality at 200 ppm [4] | mortality at 200 ppm [5] | mortality at 200 ppm [6] | pest or weed control at 200 ppm [7] | pest or weed control at 200 ppm [8]

CCN(C(=O)c1ccncc1)c1cccc(C(=O)Nc2c(Cl)cc(C(F)(C(F)(F)F)C(F)(F)Br)cc2Br)c1OC (centres unmarked) [Compound 2, N-[3-[[2-bromo-4-[1-[bromo(difluoro)methyl]-1,2,2,2-tetrafluoro-ethyl]-6-chloro-phenyl]carbamoyl]-2-methoxy-phenyl]-N-ethyl-pyridine-4-carboxamide]
≥ 80%: pest or weed control at 200 ppm [1] | pest or weed control at 12.5 ppm [2] | pest or weed control at 12.5 ppm [3] | mortality at 200 ppm [4] | mortality at 200 ppm [5] | mortality at 200 ppm [6] | pest or weed control at 200 ppm [7] | pest or weed control at 200 ppm [8]

CCN(C(=O)c1ccncc1)c1cccc(C(=O)Nc2c(Br)cc(C(F)(C(F)(F)F)C(F)(F)Br)cc2OC(F)F)c1OC (centres unmarked) [Compound 9]
≥ 80%: pest or weed control at 200 ppm [1] | pest or weed control at 12.5 ppm [2] | pest or weed control at 12.5 ppm [3] | mortality at 200 ppm [4] | mortality at 200 ppm [5] | mortality at 200 ppm [6] | pest or weed control at 200 ppm [7] | pest or weed control at 200 ppm [8]

CCc1cc(C(F)(C(F)(F)F)C(F)(F)Cl)cc(Br)c1NC(=O)c1cccc(NC(=O)c2cccnc2)c1OC (centres unmarked) [Compound 21]
≥ 80%: pest or weed control at 200 ppm [1] | pest or weed control at 12.5 ppm [2] | pest or weed control at 12.5 ppm [3] | mortality at 200 ppm [4] | mortality at 200 ppm [5] | mortality at 200 ppm [6] | pest or weed control at 200 ppm [7] | pest or weed control at 200 ppm [8]

COc1c(NC(=O)c2ccncc2)cccc1C(=O)Nc1c(Br)cc(C(F)(C(F)(F)F)C(F)(F)Cl)cc1OC(F)F (centres unmarked) [Compound 14]
≥ 80%: pest or weed control at 200 ppm [1] | pest or weed control at 12.5 ppm [2] | pest or weed control at 12.5 ppm [3] | mortality at 200 ppm [4] | mortality at 200 ppm [5] | mortality at 200 ppm [6] | pest or weed control at 200 ppm [7] | pest or weed control at 200 ppm [8]
